Measurements: PubChem BioAssay (NCI)
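Interpolation was linear, between the two tested concentrations surrounding the appropriate level; five concentrations were tested over 48 hours in 96-well plates. Abbreviation: GI50, concentration required for 50% inhibition of growth. TGI: total growth inhibition.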

Experiments:
Test in all cases: NCI-60 cell line screen, 48 h
SNB-75 CNS = tested on: SNB-75 CNS
DU-145 prostate = tested on: DU-145 prostate
HOP-62 NSCLC = tested on: HOP-62 NSCLC
SK-OV-3 ovarian = tested on: SK-OV-3 ovarian
U251 CNS = tested on: U251 CNS
ACHN renal = tested on: ACHN renal
RXF 393 renal = tested on: RXF 393 renal
UACC-62 melanoma = tested on: UACC-62 melanoma
HL-60(TB) leukemia = tested on: HL-60(TB) leukemia
SR leukemia = tested on: SR leukemia

Compound	GI50 (SNB-75 CNS)	TGI (SNB-75 CNS)	GI50 (DU-145 prostate)	TGI (DU-145 prostate)	GI50 (HOP-62 NSCLC)	TGI (HOP-62 NSCLC)	GI50 (SK-OV-3 ovarian)	TGI (SK-OV-3 ovarian)	GI50 (U251 CNS)	TGI (U251 CNS)	GI50 (ACHN renal)	TGI (ACHN renal)	GI50 (RXF 393 renal)	TGI (RXF 393 renal)	GI50 (UACC-62 melanoma)	TGI (UACC-62 melanoma)	GI50 (HL-60(TB) leukemia)	TGI (HL-60(TB) leukemia)	GI50 (SR leukemia)	TGI (SR leukemia)
CN1CCN(Cc2cc(NC(=O)c3cccc(C#Cc4cccc5[nH]nc(N)c45)c3)cc(C(F)(F)F)c2)CC1	1.5 µM	2.92 µM	1.7 µM	3.07 µM	1.55 µM	3 µM	1.94 µM	3.54 µM	1.81 µM	3.22 µM	1.66 µM	3.02 µM	1.46 µM	2.83 µM	1.69 µM	3.22 µM	1.89 µM	4.42 µM		
Fc1ccc(Nc2nc3ccccc3c3occc23)cc1			14.4 µM	27.5 µM	2.31 µM	13.8 µM	5.16 µM	18.4 µM	12.3 µM	24.7 µM	1.4 µM	15.8 µM	12.6 µM	31.5 µM	12.3 µM	24.8 µM	10.8 µM	36.8 µM	2.24 µM	16.4 µM
C=C1C(=O)O[C@H]2[C@H]1CC/C(COC(=O)NCCCCCCCCNC(=O)OC/C1=C/CC[C@@]3(C)O[C@H]3[C@H]3OC(=O)C(=C)[C@@H]3CC1)=C\CC[C@@]1(C)O[C@@H]21	1.25 µM	3.5 µM	1.1 µM	2.3 µM	1.53 µM	3.49 µM	3.64 µM	12.3 µM	0.578 µM	2 µM	0.258 µM	0.662 µM	0.162 µM	0.322 µM	0.197 µM	0.488 µM	0.268 µM	0.869 µM	0.317 µM	1.51 µM
CN(C)CCOC(=O)Nc1nc2ccc(Sc3ccccc3)cc2[nH]1	1.98 µM	7.66 µM	4.09 µM	18.8 µM	3.94 µM	15.5 µM	3.87 µM	23.7 µM	3.04 µM	12.1 µM	6.52 µM	19.2 µM	1.85 µM	6.6 µM	3.74 µM	16.7 µM	3.24 µM	8.59 µM	0.921 µM	19.4 µM
CN(C)c1ccc(N=C2C=CC(=O)c3ccccc32)cc1	1.8 µM	4.86 µM	1.74 µM	3.13 µM	2.19 µM	6.62 µM	17 µM	> 100 µM	2.47 µM	7.9 µM	4.1 µM	18.4 µM	3.2 µM	14.5 µM	1.71 µM	3.24 µM	2.15 µM	4.52 µM	2.86 µM	14.1 µM
COc1cccc(Nc2nccc(-c3cnn4ncccc34)n2)c1	0.0463 µM	0.122 µM	0.0884 µM	> 25 µM	0.0798 µM	0.532 µM	0.151 µM	> 25 µM	0.0553 µM	9.24 µM	0.0456 µM	> 25 µM	0.0449 µM	0.108 µM	0.0486 µM	0.139 µM	0.0553 µM	0.163 µM	0.0114 µM	0.0946 µM
Nc1c(F)cc(-c2nc3cc(F)ccc3[se]2)cc1Br	3.23 µM	> 63 µM	> 54.8 µM	> 100 µM	1.83 µM	> 100 µM	2.31 µM	39.3 µM	12 µM	70.5 µM	2 µM	> 100 µM	2.28 µM	42.8 µM	1.06 µM	> 100 µM	> 100 µM	> 100 µM	< 0.0162 µM	> 100 µM
CCN(Cc1ccc(F)cc1)c1ccc(CO)c(OC)c1	11.6 µM	> 100 µM	27.6 µM	> 95.2 µM	40.8 µM	> 100 µM	15.3 µM	> 94.6 µM	22.1 µM	99.3 µM	17.1 µM	53.7 µM	9.44 µM	23.6 µM	4.14 µM	17.3 µM	16 µM	46.4 µM	19.5 µM	55.7 µM
CN1CCN(Cc2ccc(NC(=O)c3cncc(C#Cc4cnc(N)c5cnccc45)c3)cc2C(F)(F)F)CC1	0.233 µM	1.71 µM	0.214 µM	6.21 µM	0.233 µM	4.32 µM	0.181 µM	6.21 µM	0.209 µM	7.62 µM	0.201 µM	1.43 µM	0.147 µM	0.565 µM	0.0782 µM	0.282 µM	0.0926 µM	0.585 µM	0.229 µM	2.97 µM
O=[N+]([O-])c1ccc(Sc2ccncn2)c([N+](=O)[O-])c1	2.82 µM	13.1 µM	2.14 µM	9.17 µM	4.47 µM	15.8 µM	8.64 µM	21.7 µM	5.47 µM	17.8 µM	2.16 µM	5.82 µM	3.99 µM	11.7 µM	6.32 µM	19.3 µM	0.174 µM	0.677 µM	0.75 µM	3.53 µM
C[CH2][Sn]([CH2]C)([O]C(=O)c1ccc(OC)c(OC)c1OC)[O]C(=O)c1ccc(OC)c(OC)c1OC	19.1 µM	62.8 µM	> 100 µM	> 100 µM	> 100 µM	> 100 µM	> 100 µM	> 100 µM	> 75.8 µM	> 100 µM	51.4 µM	> 78.9 µM	14.4 µM	30.6 µM	42.6 µM	> 100 µM	> 63.5 µM	> 100 µM	48 µM	> 100 µM
COc1ccc2c(c1OC(C)=O)C1=CC(=O)CCC13CCNC3C2 (stereo unspecified)		> 100 µM		> 100 µM		> 100 µM		> 100 µM		> 100 µM		> 100 µM		> 100 µM		> 100 µM		> 100 µM		> 100 µM
